From ChEMBL document CHEMBL3044624, “Cycloate, an inhibitor of fatty acid elongase, modulates the metabolism of very-long-side-chain alkylresorcinols in rye seedlings” (Pest Manag Sci, 2009)

Key:
Secale cereale [1] = assay: Toxicity against green Secale cereale (rye) seedlings assessed as dry biomass of seedling grown at 29 +/-2 degC at 46 uM measured at 5 days after compound-treated seed germination (reference value: 2.32 +/-0.05 g); assay type: organism-based; details: in vivo, 120 h
Secale cereale [2] = assay: Change in alkylresorcinol homologue composition in dry shoots of etiolated Secale cereale (rye) seedlings grown from compound-treated seeds at 22 +/-2 degC assessed as C19:1 content at 46 uM by GC/EI-MS analysis (reference value: 0.24 mg/kg dry weight); assay type: functional
Secale cereale [3] = assay: Toxicity against green Secale cereale (rye) seedlings assessed as dry biomass of seedling grown at 15 +/-2 degC at 46 uM measured at 5 days after compound-treated seed germination (reference value: 1.64 +/-0.03 g); assay type: organism-based; details: in vivo, 120 h
Secale cereale [4] = assay: Change in alkylresorcinol homologue composition in dry shoots of green Secale cereale (rye) seedlings grown from compound-treated seeds at 22 +/-2 degC assessed as C21:0 content at 46 uM by GC/EI-MS analysis (reference value: 0.23 mg/kg dry weight); assay type: functional
Secale cereale [5] = assay: Change in alkylresorcinol homologue composition in dry shoots of etiolated Secale cereale (rye) seedlings grown from compound-treated seeds at 15 +/-2 degC assessed as C21:1 content at 46 uM by GC/EI-MS analysis (reference value: 0.34 mg/kg dry weight); assay type: functional
Secale cereale [6] = assay: Change in alkylresorcinol homologue composition in dry shoots of green Secale cereale (rye) seedlings grown from compound-treated seeds at 22 +/-2 degC assessed as C25:0 content at 46 uM by GC/EI-MS analysis (reference value: 0.11 mg/kg dry weight); assay type: functional
Secale cereale [7] = assay: Change in alkylresorcinol homologue composition in dry shoots of green Secale cereale (rye) seedlings grown from compound-treated seeds at 22 +/-2 degC assessed as C17:0 content at 46 uM by GC/EI-MS analysis (reference value: 0.93 mg/kg dry weight); assay type: functional
Secale cereale [8] = assay: Toxicity against etiolated Secale cereale (rye) seedlings assessed as dry biomass of seedling grown at 22 +/-2 degC at 46 uM measured at 5 days after compound-treated seed germination (reference value: 2.52 +/-0.05 g); assay type: organism-based; details: in vivo, 120 h
Secale cereale [9] = assay: Change in alkylresorcinol homologue composition in dry shoots of green Secale cereale (rye) seedlings grown from compound-treated seeds at 29 +/-2 degC assessed as C17:1 content at 46 uM by GC/EI-MS analysis (reference value: 0.08 mg/kg dry weight); assay type: functional
Secale cereale [10] = assay: Change in alkylresorcinol homologue composition in dry shoots of etiolated Secale cereale (rye) seedlings grown from compound-treated seeds at 29 +/-2 degC assessed as C17:0 content at 46 uM by GC/EI-MS analysis (reference value: 0.48 mg/kg dry weight); assay type: functional
Secale cereale [11] = assay: Change in alkylresorcinol homologue composition in dry shoots of green Secale cereale (rye) seedlings grown from compound-treated seeds at 22 +/-2 degC assessed as C23:0 content at 46 uM by GC/EI-MS analysis (reference value: 0.54 mg/kg dry weight); assay type: functional
Secale cereale [12] = assay: Change in alkylresorcinol homologue composition in dry shoots of etiolated Secale cereale (rye) seedlings grown from compound-treated seeds at 29 +/-2 degC assessed as C15:0 content at 46 uM by GC/EI-MS analysis (reference value: 0.09 mg/kg dry weight); assay type: functional
Secale cereale [13] = assay: Change in alkylresorcinol homologue composition in dry shoots of green Secale cereale (rye) seedlings grown from compound-treated seeds at 22 +/-2 degC assessed as C21:1 content at 46 uM by GC/EI-MS analysis (reference value: 0.09 mg/kg dry weight); assay type: functional
Secale cereale [14] = assay: Change in alkylresorcinol homologue composition in dry shoots of green Secale cereale (rye) seedlings grown from compound-treated seeds at 15 +/-2 degC assessed as C25:0 content at 46 uM by GC/EI-MS analysis (reference value: 0.06 mg/kg dry weight); assay type: functional
Secale cereale [15] = assay: Change in alkylresorcinol homologue composition in dry shoots of etiolated Secale cereale (rye) seedlings grown from compound-treated seeds at 22 +/-2 degC assessed as C23:1 content at 46 uM by GC/EI-MS analysis (reference value: 0.04 mg/kg dry weight); assay type: functional
Secale cereale [16] = assay: Change in alkylresorcinol homologue composition in dry shoots of green Secale cereale (rye) seedlings grown from compound-treated seeds at 22 +/-2 degC assessed as C17:1 content at 46 uM by GC/EI-MS analysis (reference value: 0.21 mg/kg dry weight); assay type: functional
Secale cereale [17] = assay: Toxicity against etiolated Secale cereale (rye) seedlings assessed as dry biomass of seedling grown at 29 +/-2 degC at 46 uM measured at 5 days after compound-treated seed germination (reference value: 2.13 +/-0.03 g); assay type: organism-based; details: in vivo, 120 h
Secale cereale [18] = assay: Change in alkylresorcinol homologue composition in dry shoots of etiolated Secale cereale (rye) seedlings grown from compound-treated seeds at 29 +/-2 degC assessed as C17:1 content at 46 uM by GC/EI-MS analysis (reference value: 0.05 mg/kg dry weight); assay type: functional
Secale cereale [19] = assay: Change in alkylresorcinol homologue composition in dry shoots of green Secale cereale (rye) seedlings grown from compound-treated seeds at 15 +/-2 degC assessed as C23:0 content at 46 uM by GC/EI-MS analysis (reference value: 0.59 mg/kg dry weight); assay type: functional
Secale cereale [20] = assay: Toxicity against green Secale cereale (rye) seedlings assessed as fresh biomass of seedling grown at 22 +/-2 degC at 46 uM measured at 5 days after compound-treated seed germination (reference value: 20.76 +/-0.81 g); assay type: organism-based; details: in vivo, 120 h
Secale cereale [21] = assay: Change in alkylresorcinol homologue composition in dry shoots of green Secale cereale (rye) seedlings grown from compound-treated seeds at 29 +/-2 degC assessed as C15:0 content at 46 uM by GC/EI-MS analysis (reference value: 0.11 mg/kg dry weight); assay type: functional
Secale cereale [22] = assay: Change in alkylresorcinol homologue composition in dry shoots of green Secale cereale (rye) seedlings grown from compound-treated seeds at 15 +/-2 degC assessed as C19:1 content at 46 uM by GC/EI-MS analysis (reference value: 0.23 mg/kg dry weight); assay type: functional

`CCSC(=O)N(CC)C1CCCCC1` [CYCLOATE] was tested. Which Activity (Secale cereale [1]) did it give?
Its Activity is 1.64 g.

What about the Activity (Secale cereale [2]) of the same compound?
Its Activity is 0.21 mg/kg.

And the Activity (Secale cereale [3])?
The Activity was 1.12 g.

What about the Activity (Secale cereale [4]) of the same compound?
Its Activity is 0.05 mg/kg.

What about the Activity (Secale cereale [5]) of the same compound?
The Activity was 0.43 mg/kg.

What about the Activity (Secale cereale [6]) of the same compound?
Its Activity is 0.07 mg/kg.

And the Activity (Secale cereale [7])?
The Activity was 1.32 mg/kg.

And the Activity (Secale cereale [8])?
Its Activity is 1.5 g.

What about the Activity (Secale cereale [9]) of the same compound?
Its Activity is 0.75 mg/kg.

And the Activity (Secale cereale [10])?
The Activity was 5.52 mg/kg.

What about the Activity (Secale cereale [11]) of the same compound?
The Activity was 0.13 mg/kg.

What about the Activity (Secale cereale [12]) of the same compound?
The Activity was 0.72 mg/kg.

And the Activity (Secale cereale [13])?
The Activity was 0.05 mg/kg.

What about the Activity (Secale cereale [14]) of the same compound?
Its Activity is 0.09 mg/kg.

What about the Activity (Secale cereale [15]) of the same compound?
Its Activity is 0.03 mg/kg.

And the Activity (Secale cereale [16])?
The Activity was 0.13 mg/kg.

And the Activity (Secale cereale [17])?
The Activity was 2.32 g.

And the Activity (Secale cereale [18])?
Its Activity is 0.98 mg/kg.

What about the Activity (Secale cereale [19]) of the same compound?
The Activity was 0.17 mg/kg.

What about the Activity (Secale cereale [20]) of the same compound?
Its Activity is 10.63 g.

What about the Activity (Secale cereale [21]) of the same compound?
Its Activity is 0.53 mg/kg.

What about the Activity (Secale cereale [22]) of the same compound?
The Activity was 0.37 mg/kg.
